Experimental data taken from ChEMBL document CHEMBL1133635, “Caspases as targets for anti-inflammatory and anti-apoptotic drug discovery” (J Med Chem, 2000).
Where a SMILES comes first, the peptide text is derived from it. [ ]: non-standard residue; d: D form. ξ: configuration not given here. ξE = NC(CCC(=O)O)C(=O)O; βAla = NCCC(=O)O

Columns and labels:
Caspase-1 [1] = molecular target: T1, Caspase-1 (Homo sapiens, UniProt P29466); assay: Compound was evaluated for the inhibitory activity against caspase-1
T1 sequence (P29466 whole entry): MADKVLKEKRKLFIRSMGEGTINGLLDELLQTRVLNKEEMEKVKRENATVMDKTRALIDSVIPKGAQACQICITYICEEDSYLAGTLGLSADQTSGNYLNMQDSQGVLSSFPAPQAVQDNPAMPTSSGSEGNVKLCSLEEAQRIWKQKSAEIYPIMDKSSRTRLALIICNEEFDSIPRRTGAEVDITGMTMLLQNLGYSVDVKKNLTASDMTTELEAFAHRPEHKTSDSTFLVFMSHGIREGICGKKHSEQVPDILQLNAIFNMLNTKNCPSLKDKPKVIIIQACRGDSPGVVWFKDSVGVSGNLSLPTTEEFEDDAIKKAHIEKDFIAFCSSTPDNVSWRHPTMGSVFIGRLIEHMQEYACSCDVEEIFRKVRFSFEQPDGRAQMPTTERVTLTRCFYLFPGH

Caspase-1 [2] = molecular target: T1, Caspase-1; assay: Dissociation constant for inhibition of caspase-1
Caspase-7 = molecular target: T2, Caspase-7 (Homo sapiens, UniProt P55210); assay: Evaluated for kinetic dissociation constant […] for the inhibition of caspase-7; conditions: read-out: Ki app
T2 sequence (P55210 whole entry): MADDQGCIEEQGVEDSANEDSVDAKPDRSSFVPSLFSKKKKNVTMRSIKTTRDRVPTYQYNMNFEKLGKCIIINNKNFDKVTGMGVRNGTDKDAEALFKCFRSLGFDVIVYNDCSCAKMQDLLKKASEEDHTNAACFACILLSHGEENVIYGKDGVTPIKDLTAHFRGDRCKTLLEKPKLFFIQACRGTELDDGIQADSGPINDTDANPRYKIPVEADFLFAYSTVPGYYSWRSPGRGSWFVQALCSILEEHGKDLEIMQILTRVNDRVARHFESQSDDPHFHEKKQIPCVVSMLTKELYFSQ

Caspase-3 = molecular target: T3, Caspase-3 (Homo sapiens, UniProt P42574); assay: Evaluated for the dissociation constant for the inhibition of caspase-3; conditions: read-out: Ki app
T3 sequence (P42574 whole entry): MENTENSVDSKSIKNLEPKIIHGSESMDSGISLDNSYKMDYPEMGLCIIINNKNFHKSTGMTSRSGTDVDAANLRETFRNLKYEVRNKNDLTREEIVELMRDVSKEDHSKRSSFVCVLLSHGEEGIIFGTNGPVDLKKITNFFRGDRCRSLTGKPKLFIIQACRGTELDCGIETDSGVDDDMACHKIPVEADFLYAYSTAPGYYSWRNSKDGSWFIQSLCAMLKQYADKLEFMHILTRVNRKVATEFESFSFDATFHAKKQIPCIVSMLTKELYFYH

Caspase-1 (Homo sapiens) [3] = molecular target: T4, Caspase-1 (Homo sapiens) (UniProt P29466)
T4 sequence (whole entry): T1 sequence (P29466 whole entry)
Description: Evaluated for dissociation constant for the inhibition of caspase-1

Caspase-1 (Homo sapiens) [4] = molecular target: T4, Caspase-1 (Homo sapiens); remark: listed apart in the source
Description: Evaluated for kinetic dissociation constant (kon) for the inhibition of caspase-1.

| Compound | IC50 (Caspase-1 [1]) [µM] | Ki (Caspase-1 [2]) [µM] | also measured |
| --- | --- | --- | --- |
| O=C(O)C[C@H](NC(=O)C(c1ccccc1)n1cccc(NC(=O)c2cccc3ccccc23)c1=O)C(=O)COc1ccccc1 (stereo partly drawn) | 0.01 |  |  |
| CC[C@@H](C(=O)NC(CC(=O)O)C(=O)CNCCc1ccccc1)n1cccc(NC(=O)c2ccc3ccccc3c2)c1=O (stereo partly drawn) | 0.00037 |  |  |
| CC(=O)N[C@@H](Cc1ccc(O)cc1)C(=O)N[C@H](C(=O)N[C@@H](C)C(=O)NC(CC(=O)O)C(=O)CCCCCc1ccccc1)C(C)C (stereo partly drawn) | 0.0185 |  |  |
| CC(=O)N[C@@H](Cc1ccc(O)cc1)C(=O)N[C@H](C(=O)N[C@@H](C)C(=O)N[C@@H](CC(=O)O)C(=O)C(=O)NCCc1ccccc1)C(C)C |  | 0.009 |  |
| CC(=O)N[C@@H](Cc1ccc(O)cc1)C(=O)N[C@H](C(=O)N1CC(O)C[C@H]1C(=O)NC(C=O)CC(=O)O)C(C)C (stereo partly drawn) |  | 0.002 |  |
| CN1C(=O)C(=O)c2cc(S(=O)(=O)N3CCC[C@H]3COc3ccccc3)ccc21 |  |  | Ki (Caspase-7): 0.047 µM; Ki (Caspase-3): 0.015 µM |
| CC(C)[C@H](NC(=O)OCc1ccccc1)C(=O)N[C@@H](C)C(=O)NC(CC(=O)O)C(=O)COc1cc2ccccc2cc1C(N)=O (stereo partly drawn) | 0.0017 |  | k on (Caspase-1 (Homo sapiens) [3]): 430000 M⁻¹ s⁻¹ |
| CC(C)[C@H](NC/C=C/c1ccccc1)C(=O)N1CC(O)C[C@H]1C(=O)NC(CC(=O)O)C(=O)COc1ccccc1 (stereo partly drawn) | 0.013 |  |  |
| O=C[C@H](CC(=O)O)NS(=O)(=O)c1ccccc1OCCc1cccc2ccccc12 |  | 0.062 |  |
| CC(C)[C@H](CC(=O)NCCc1cn(C)c2ccccc12)C(=O)NC(CC(=O)O)C(=O)CNS(=O)(=O)CC12CCC(CC1=O)C2(C)C (stereo partly drawn) | 0.0004 |  |  |
| CC(C)[C@H](NC(=O)OCc1ccccc1)C(=O)N[C@@H](C)C(=O)N[C@@H](CC(=O)O)C(=O)c1ncc(-c2ccccc2)o1 |  |  | Ki (Caspase-1 [1]): 0.24 µM |
| CC(=O)N[C@@H](Cc1ccc(O)cc1)C(=O)N[C@H](C(=O)N[C@@H](C)C(=O)NC(C=O)CCC(=O)O)C(C)C (stereo partly drawn) (Ac-YVA[ξE]-aldehyde) |  | 0.009 |  |
| O=C[C@H](CC(=O)O)NC(=O)[C@@H]1Cc2cccc3c2N1C(=O)[C@@H](NC(=O)c1cccc2ccccc12)CC3 |  | 0.01 |  |
| O=C[C@H](CC(=O)O)NC(=O)C1CCC2CCC(NC(=O)OCc3ccccc3)C(=O)N21 (stereo partly drawn) |  | 0.036 |  |
| CC(C)[C@H](NC(=O)OCc1ccccc1)C(=O)N[C@@H](C)C(=O)N[C@@H](CC(=O)O)C(=O)c1nc(-c2ccccc2)c[nH]1 |  |  | Ki (Caspase-1 [1]): 6.3 µM |
| CC(C)[C@H](NC(=O)OCc1ccccc1)C(=O)N[C@@H](C)C(=O)NC(CC(=O)O)C(=O)COC(=O)CCc1ccccc1 (stereo partly drawn) | 0.0019 |  |  |
| CC(C)[C@H](NC(=O)OCc1ccccc1)C(=O)N[C@@H](C)C(=O)N[C@@H](CC(=O)O)C(=O)c1nccs1 |  |  | Ki (Caspase-1 [1]): 10 µM |
| CC(=O)N[C@@H](Cc1ccc(O)cc1)C(=O)N[C@H](C(=O)N[C@@H](C)C(=O)NC(C=O)CC(=O)O)C(C)C (stereo partly drawn) |  | 0.00076 | k on (Caspase-1 (Homo sapiens) [4]): 380000 M⁻¹ s⁻¹ |
| CC(C)[C@H](NC(=O)c1ccccc1)C(=O)N(CC(=O)NC(CC(=O)O)C(=O)c1nc2ccccc2o1)C1Cc2ccccc2C1 (stereo partly drawn) | 0.002 |  |  |
| CC(C)[C@H](NC(=O)OCc1ccccc1)C(=O)N[C@@H](C)C(=O)NC(CC(=O)O)C(=O)COc1ccc2ccc(=O)oc2c1 (stereo partly drawn) |  | 0.017 |  |
| CCCCC(C(=O)N[C@@H](CC(=O)O)C(=O)COc1ccccc1)n1cncc(NC(=O)c2cccc3ccccc23)c1=O (stereo partly drawn) | 0.046 |  |  |
| CC(C)[C@H](NC(=O)OCc1ccccc1)C(=O)N[C@@H](C)C(=O)N[C@@H](CC(=O)O)C(=O)c1ncco1 |  |  | Ki (Caspase-1 [1]): 13 µM |
| CC(C)[C@H](NC(=O)c1ccc2ccccc2c1)C(=O)N1CCC[C@H]1C(=O)NC(C=O)CC(=O)NS(C)(=O)=O (stereo partly drawn) |  | 0.038 |  |
| CC(=O)N[C@@H](Cc1ccc(O)cc1)C(=O)N[C@H](C(=O)N[C@@H](C)C(=O)NCCC(=O)O)C(C)C (Ac-YVA[βAla]-OH) |  | 200 |  |
| CC(C)[C@H](NC(=O)OCc1ccccc1)C(=O)N[C@@H](C)C(=O)N[C@@H](CC(=O)O)C(=O)c1ncc[nH]1 |  |  | Ki (Caspase-1 [1]): 8.8 µM |
